Experimental data from PMC9154192 (PLoS Biology, 2022).
Like-named read-outs stand apart in the source and are kept apart here.

Format: in vivo, SD rats
Description: A subchronic toxicity study was performed for PP2S. Female and male rats were divided into a control group (0 mg/kg/day, n = 15), a low-dose group (167 mg/kg/day, n = 10), a medium-dose group (500 mg/kg/day, n = 10), and a high-dose group (1,500 mg/kg/day, n = 15), respectively. Thus, there were a total of 8 groups. The drug was administered by oral gavage at 10 mL/kg body weight daily for 4 weeks. Five animals each in the control and high-dose groups continued their treatments for 2 more weeks. Clinical symptoms were observed, and body weight was measured during the test period for a total of 6 weeks; 0.5% methyl cellulose 1,500 cP (Sigma, USA) in water for injection (JW Pharmaceutical, Korea) was used as a vehicle. Control animals were treated with only the same volume of the vehicle.
Histopathological examination was performed while performing a 4-week repeated oral toxicity study for PP2S. Organs and tissues from all animals subjected to autopsy were removed and fixed in 10% neutral buffered formalin. Among them, testes, eyeballs and optic nerve were fixed in Davidson's fixative and then in 10% neutral buffered formalin. For organs/tissues subjected to histopathological examination, specimens were prepared according to the histopathological specimen preparation SOP. For histopathological examination, organs and tissues of all subjects in the control group and the high-dose group, and macroscopically observed subjects in the low-dose group were examined. […] In addition, all other changes observed in histopathological examination were judged to be spontaneous or accidental. Those not specifically observed for all groups by organ were marked with a 'dash' symbol. Grade 1, minimal; Grade 2, slight; Grade 3, moderate; Grade 4, severe.

[1] = female, G4 1,500 mg/kg, recovery period, n=5
[2] = male, G2 167 mg/kg, dosing period, n=10
[3] = male, G3 500 mg/kg, dosing period, n=10
[4] = male, G4 1,500 mg/kg, dosing period, n=10
[5] = male, G4 1,500 mg/kg, recovery period, n=5

In the case of CCCCOc1ccc2cc(CN3C(=O)CC[C@H]3C(=O)OC)c3cc(OC)c(OC)cc3c2c1 [PP2S, Methyl (S)-1-((3-butoxy-6,7-dimethoxyphenanthren-9-yl)methyl)-5-oxopyrrolidine-2-carboxylate], the “Kidney: Mineralization, medulla, Grade 1, no. of animals” value [1] is reported as 0, the “Liver: Extramedullary hematopoiesis, Grade 1, no. of animals” value [1] is reported as 0 and the “Liver: Fatty change, sporadic/periportal, Grade 1, no. of animals” value [1] is reported as 2. The “Liver: Fatty change, sporadic/periportal, Grade 2, no. of animals” value [1] was 0, the “Liver: Infiltrate, mononuclear cell, focal, Grade 1, no. of animals” value (from here on “Liver: Infiltrate … Grade 1, no. of animals”) [1] was 4 and the “Liver: Infiltrate, mononuclear cell, focal, Grade 2, no. of animals” value (from here on “Liver: Infiltrate … Grade 2, no. of animals”) [1] was 0. The “Lung including bronchi: Alveolar macrophage aggregation, focal, Grade 1, no. of animals” value [1] was 0, the “Lung including bronchi: Infiltrate, mononuclear cell, alveolar, focal, Grade 1, no. of animals” value [1] was 1 and the “Pituitary gland: Cyst, pars nervosa, Presence, no. of animals” value (from here on “Pituitary gland: Cyst … no. of animals”) [1] was 0. For the same molecule, the “Prostate: Infiltrate, inflammatory cell, interstitium, Grade 1, no. of animals” value (“Prostate: Infiltrate … no. of animals” for short) [1] was 0, the “Salivary gland (parotid): Focus, hypertrophic, basophilic, focal, Grade 1, no. of animals” value (“Salivary gland (parotid): Focus … no. of animals” below) [1] was 0 and the “Spleen: Pigmentation, Grade 1, no. of animals” value (from here on “Spleen … no. of animals”) [1] was 5. For the same molecule, the “Submandibular lymph node: Increased, plasma cell, Grade 2, no. of animals” value [1] was 0, the “Thyroid gland: Ectopic thymus, Presence, no. of animals” value [1] was 1 and the “Thyroid gland: Ultimobranchial cyst, Presence, no. of animals” value [1] was 2. The “Adrenal gland: Vacuolation, cortical, diffuse, Grade 1, no. of animals” value (from here on “Adrenal gland … Grade 1, no. of animals”) [2] was 0, the “Adrenal gland: Vacuolation, cortical, diffuse, Grade 2, no. of animals” value (from here on “Adrenal gland … Grade 2, no. of animals”) [2] was 0 and the “Epididymis: Infiltrate, inflammatory cell, interstitum, Grade 1, no. of animals” value (from here on “Epididymis: Infiltrate … no. of animals”) [2] was 0. The “Eye: Dysplasia, retina, focal, Grade 1, no. of animals” value (shortened to “Eye: Dysplasia … no. of animals”) [2] was 0, the “Harderian gland: Infiltrate, inflammatory cell, focal, Grade 1, no. of animals” value (shortened to “Harderian gland: Infiltrate … no. of animals”) [2] was 0 and the “Kidney: Basophilia, tubule, cortex, Grade 1, no. of animals” value (shortened to “Kidney: Basophilia … no. of animals”) [2] was 0. For the same molecule, the “Kidney: Cast, hyaline, cortex, Grade 1, no. of animals” value (“Kidney: Cast … no. of animals” below) [2] was 0, the “Kidney: Hydronephrosis, unilateral, Grade 3, no. of animals” value (“Kidney: Hydronephrosis … no. of animals” for short) [2] was 0 and the “Kidney: Infiltrate, inflammatory cell, interstitium, Grade 1, no. of animals” value (shortened to “Kidney: Infiltrate … Grade 1, no. of animals”) [2] was 0. For the same molecule, the “Kidney: Infiltrate, inflammatory cell, interstitium, Grade 2, no. of animals” value (“Kidney: Infiltrate … Grade 2, no. of animals” for short) [2] was 0, the “Kidney: Mineralization, cortex, Grade 1, no. of animals” value [2] was 0 and the “Kidney: Mineralization, corticomedullary junction, Grade 1, no. of animals” value [2] was 0. For the same molecule, the “Kidney: Mineralization, medulla, Grade 1, no. of animals” value [2] was 0, the “Liver: Extramedullary hematopoiesis, Grade 1, no. of animals” value [2] was 0 and the “Liver: Fatty change, sporadic/periportal, Grade 1, no. of animals” value [2] was 0. The “Liver: Fatty change, sporadic/periportal, Grade 2, no. of animals” value [2] was 0, the “Liver: Infiltrate … Grade 1, no. of animals” value [2] was 0 and the “Liver: Infiltrate … Grade 2, no. of animals” value [2] was 0. For the same molecule, the “Lung including bronchi: Alveolar macrophage aggregation, focal, Grade 1, no. of animals” value [2] was 0, the “Lung including bronchi: Infiltrate, mononuclear cell, alveolar, focal, Grade 1, no. of animals” value [2] was 0 and the “Pituitary gland: Cyst … no. of animals” value [2] was 0. The “Prostate: Infiltrate … no. of animals” value [2] was 0, the “Salivary gland (parotid): Focus … no. of animals” value [2] was 0 and the “Spleen … no. of animals” value [2] was 0. For the same molecule, the “Submandibular lymph node: Increased, plasma cell, Grade 2, no. of animals” value [2] was 1, the “Thyroid gland: Ectopic thymus, Presence, no. of animals” value [2] was 0 and the “Thyroid gland: Ultimobranchial cyst, Presence, no. of animals” value [2] was 0. The “Adrenal gland … Grade 1, no. of animals” value [3] was 0, the “Adrenal gland … Grade 2, no. of animals” value [3] was 0 and the “Epididymis: Infiltrate … no. of animals” value [3] was 0. For the same molecule, the “Eye: Dysplasia … no. of animals” value [3] was 0, the “Harderian gland: Infiltrate … no. of animals” value [3] was 0 and the “Kidney: Basophilia … no. of animals” value [3] was 0. The “Kidney: Cast … no. of animals” value [3] was 0, the “Kidney: Hydronephrosis … no. of animals” value [3] was 0 and the “Kidney: Infiltrate … Grade 1, no. of animals” value [3] was 0. The “Kidney: Infiltrate … Grade 2, no. of animals” value [3] was 0, the “Kidney: Mineralization, cortex, Grade 1, no. of animals” value [3] was 0 and the “Kidney: Mineralization, corticomedullary junction, Grade 1, no. of animals” value [3] was 0. The “Kidney: Mineralization, medulla, Grade 1, no. of animals” value [3] was 0, the “Liver: Extramedullary hematopoiesis, Grade 1, no. of animals” value [3] was 0 and the “Liver: Fatty change, sporadic/periportal, Grade 1, no. of animals” value [3] was 0. The “Liver: Fatty change, sporadic/periportal, Grade 2, no. of animals” value [3] was 0, the “Liver: Infiltrate … Grade 1, no. of animals” value [3] was 0 and the “Liver: Infiltrate … Grade 2, no. of animals” value [3] was 0. The “Lung including bronchi: Alveolar macrophage aggregation, focal, Grade 1, no. of animals” value [3] was 0, the “Lung including bronchi: Infiltrate, mononuclear cell, alveolar, focal, Grade 1, no. of animals” value [3] was 0 and the “Pituitary gland: Cyst … no. of animals” value [3] was 0. The “Prostate: Infiltrate … no. of animals” value [3] was 0, the “Salivary gland (parotid): Focus … no. of animals” value [3] was 0 and the “Spleen … no. of animals” value [3] was 0. The “Submandibular lymph node: Increased, plasma cell, Grade 2, no. of animals” value [3] was 0, the “Thyroid gland: Ectopic thymus, Presence, no. of animals” value [3] was 0 and the “Thyroid gland: Ultimobranchial cyst, Presence, no. of animals” value [3] was 0. The “Adrenal gland … Grade 1, no. of animals” value [4] was 3, the “Adrenal gland … Grade 2, no. of animals” value [4] was 1 and the “Epididymis: Infiltrate … no. of animals” value [4] was 1. For the same molecule, the “Eye: Dysplasia … no. of animals” value [4] was 0, the “Harderian gland: Infiltrate … no. of animals” value [4] was 1 and the “Kidney: Basophilia … no. of animals” value [4] was 3. For the same molecule, the “Kidney: Cast … no. of animals” value [4] was 1, the “Kidney: Hydronephrosis … no. of animals” value [4] was 0 and the “Kidney: Infiltrate … Grade 1, no. of animals” value [4] was 7. For the same molecule, the “Kidney: Infiltrate … Grade 2, no. of animals” value [4] was 1, the “Kidney: Mineralization, cortex, Grade 1, no. of animals” value [4] was 0 and the “Kidney: Mineralization, corticomedullary junction, Grade 1, no. of animals” value [4] was 0. The “Kidney: Mineralization, medulla, Grade 1, no. of animals” value [4] was 0, the “Liver: Extramedullary hematopoiesis, Grade 1, no. of animals” value [4] was 1 and the “Liver: Fatty change, sporadic/periportal, Grade 1, no. of animals” value [4] was 4. For the same molecule, the “Liver: Fatty change, sporadic/periportal, Grade 2, no. of animals” value [4] was 0, the “Liver: Infiltrate … Grade 1, no. of animals” value [4] was 4 and the “Liver: Infiltrate … Grade 2, no. of animals” value [4] was 0. The “Lung including bronchi: Alveolar macrophage aggregation, focal, Grade 1, no. of animals” value [4] was 0, the “Lung including bronchi: Infiltrate, mononuclear cell, alveolar, focal, Grade 1, no. of animals” value [4] was 2 and the “Pituitary gland: Cyst … no. of animals” value [4] was 1. The “Prostate: Infiltrate … no. of animals” value [4] was 2, the “Salivary gland (parotid): Focus … no. of animals” value [4] was 0 and the “Spleen … no. of animals” value [4] was 0. For the same molecule, the “Submandibular lymph node: Increased, plasma cell, Grade 2, no. of animals” value [4] was 0, the “Thyroid gland: Ectopic thymus, Presence, no. of animals” value [4] was 0 and the “Thyroid gland: Ultimobranchial cyst, Presence, no. of animals” value [4] was 2. For the same molecule, the “Adrenal gland … Grade 1, no. of animals” value [5] was 3, the “Adrenal gland … Grade 2, no. of animals” value [5] was 0 and the “Epididymis: Infiltrate … no. of animals” value [5] was 0. The “Eye: Dysplasia … no. of animals” value [5] was 0, the “Harderian gland: Infiltrate … no. of animals” value [5] was 0 and the “Kidney: Basophilia … no. of animals” value [5] was 1. The “Kidney: Cast … no. of animals” value [5] was 3, the “Kidney: Hydronephrosis … no. of animals” value [5] was 0 and the “Kidney: Infiltrate … Grade 1, no. of animals” value [5] was 0. For the same molecule, the “Kidney: Infiltrate … Grade 2, no. of animals” value [5] was 0, the “Kidney: Mineralization, cortex, Grade 1, no. of animals” value [5] was 0 and the “Kidney: Mineralization, corticomedullary junction, Grade 1, no. of animals” value [5] was 0. For the same molecule, the “Kidney: Mineralization, medulla, Grade 1, no. of animals” value [5] was 0, the “Liver: Extramedullary hematopoiesis, Grade 1, no. of animals” value [5] was 1 and the “Liver: Fatty change, sporadic/periportal, Grade 1, no. of animals” value [5] was 2. The “Liver: Fatty change, sporadic/periportal, Grade 2, no. of animals” value [5] was 0, the “Liver: Infiltrate … Grade 1, no. of animals” value [5] was 3 and the “Liver: Infiltrate … Grade 2, no. of animals” value [5] was 0. For the same molecule, the “Lung including bronchi: Alveolar macrophage aggregation, focal, Grade 1, no. of animals” value [5] was 0, the “Lung including bronchi: Infiltrate, mononuclear cell, alveolar, focal, Grade 1, no. of animals” value [5] was 0 and the “Pituitary gland: Cyst … no. of animals” value [5] was 0. The “Prostate: Infiltrate … no. of animals” value [5] was 1, the “Salivary gland (parotid): Focus … no. of animals” value [5] was 0 and the “Spleen … no. of animals” value [5] was 3. For the same molecule, the “Submandibular lymph node: Increased, plasma cell, Grade 2, no. of animals” value [5] was 0, the “Thyroid gland: Ectopic thymus, Presence, no. of animals” value [5] was 0 and the “Thyroid gland: Ultimobranchial cyst, Presence, no. of animals” value [5] was 1.
